Data taken from patent publication US4504483A, “Fluorine substituted pyridine methyl esters and insecticidal and acaricidal compositions thereof” (Nissan Chemical Industries Ltd., priority 1981, dated 1985).
In brackets after ≈: the same amount, converted by molar mass.

Tests used:
green rice leafhopper = assay: Contact test for killing green rice leafhopper; assay type: in vivo; conditions: Nephotettix cincticeps, 48 h, read-out: LC50 (median lethal dose)
Protocol: Stems and leaves of a rice seedling were dipped in each emulsion of each active ingredient of the present invention or a reference compound for 10 seconds and were dried in air. The stems and leaves were covered with a glass cylinder. Adult green rice leafhoppers which are resistant to the conventional organic phosphorus type insecticide were released into the glass cylinder which was covered with a cover having holes and was maintained in a constant temperature room at 25° C. for 48 hours and each percent mortality was determined and median lethal dose (LC50) was calculated in Finny's graphic method.

Common cutworm = assay: Contact test for killing Common cutworm; assay type: in vivo, Spodoptcra litura; conditions: 48 h, read-out: LC50 (median lethal dose)
Protocol: Leaves of cabbage were dipped in each aqueous emulsion of each active ingredient of the compounds of the invention or the reference for 10 seconds. The leaves were taken up and dried in air and put in a Petri dish. Common cutworms (second instar) were put in the Petri dish which was covered with a cover having many holes. The Petri dish was maintained in a constant temperature room at 25° C. for 48 hours and each percent mortality was determined and median lethal dose (LC50) was calculated in Finny's graphic method.

[1] = tested on: Twenty-eight-spotted Ladybeetle; assay: Contact test for killing Twenty-eight-spotted Ladybeetle; assay type: in vivo; conditions: Henosepilachna vigintioctopunctata, in Solanum lycopersicum, 48 h, read-out: LC50 (median lethal dose)
Protocol: Leaves of tomato were dipped in each emulsion of each active ingredient of the present invention or the reference for 10 seconds. The leaves were taken up and dired in air and put in a Petri dish. Ten of Twenty-eight-spotted Ladybeetles (second instar) were put in the Petri dish which was covered with a cover. The Petri dish was maintained in a constant temperature room at 25° C. for 48 hours and percent mortality was determined and median lethal dose (LC50) was calculated in Finny's graphic method.

Green peach aphid = assay: Test for killing Green peach aphid; assay type: in vivo, Myzue persicae; conditions: Myzus persicae, 48 h, read-out: LC50 (median lethal dose)
Protocol: Each emulsifiable concentrate of the compound of the present invention or the reference compound was diluted with water to a predetermined concentration. Green peach aphid were inoculated on leaves in a Petri dish having a diameter of 3 cm and 2 ml of each emulsion was sprayed and it was covered. The Petri dish was maintained in a constant temperature room at 25° C. for 48 hours and each percent of mortality was determined and median lethal dose (LC50) was calculated in Finny's graphic method.

Kanzawa spider mite = assay: Test for killing Kanzawa spider mite; assay type: in vivo; conditions: Tetranychus kanzawai, in Phaseolus vulgaris, 48 h, read-out: LC50 (median lethal dose)
Source text: Leaves of kidney bean was cut by a leaf-punch in a form of circle having a diameter of 1.5 cm. The leaf-discs were put on a wet filter paper on a polystyrene cup having a diameter of 7 cm. Ten of Kanzawa spider mites were inoculated on the leaf-discs in the cup. Half days after the inoculation, each solution prepared by diluting each emulsifiable concentrate of the present invention or each reference compound with a spreader (Nitten S 4,000 times manufactured by Nissan Chem.) at each predetermined concentration was sprayed by a rotary spray for 2 ml. per each cup.
Numbers of mortalities of mites were measured after 48 hours from the spraying and percent mortaliteis were calculated and median lethal dose (LC50) was calculated in Finny's graphic method.

SMILES	LC50 (green rice leafhopper)	LC50 (Common cutworm)	LC50 [1]	LC50 (Green peach aphid)	LC50 (Kanzawa spider mite)
CC1(C)[C@@H](C(=O)OC(C#N)c2ccc(F)c(Oc3ccccc3)n2)[C@@H]1c1ccc(Cl)cc1 (relative stereo) [Compound No. 3]	0.7 µg/mL (≈ 1.55 µM)	1.3 µg/mL (≈ 2.88 µM)	0.26 µg/mL (≈ 0.577 µM)		
CC(C)(C)c1ccc([C@H]2[C@H](C(=O)OC(C#N)c3ccc(F)c(Oc4ccccc4)n3)C2(C)C)cc1 (relative stereo) [Compound No. 4, Cyano(5-fluoro-6-phenoxy-2-pyridyl) methyl trans-2,2-dimethyl-3-(p-t-butylphenyl)cyclopropanecarboxylate]	1.3 µg/mL (≈ 2.75 µM)	4 µg/mL (≈ 8.46 µM)		4.6 µg/mL (≈ 9.73 µM)	0.32 µg/mL (≈ 0.677 µM)
CC(C)C(C(=O)OC(C#N)c1ccc(F)c(Oc2ccccc2)n1)c1ccc(Cl)cc1 (stereo not drawn) [Compound No. 1, Cyano(5-fluoro-6-phenoxy-2-pyridyl) methyl α-isopropyl-p-chlorophenylacetate]	0.26 µg/mL (≈ 0.592 µM)	0.43 µg/mL (≈ 0.98 µM)	0.05 µg/mL (≈ 0.114 µM)		6.3 µg/mL (≈ 14.4 µM)
CC(C)C(C(=O)OC(C#N)c1ccc(F)c(Oc2ccccc2)n1)c1ccc(OC(F)F)cc1 (centres unmarked) [Compound No. 2]	0.28 µg/mL (≈ 0.595 µM)	3 µg/mL (≈ 6.38 µM)	0.5 µg/mL (≈ 1.06 µM)	2.3 µg/mL (≈ 4.89 µM)	12 µg/mL (≈ 25.5 µM)
CC1(C)C(C=C(Cl)Cl)C1C(=O)OC(C#N)c1ccc(F)c(Oc2ccccc2)n1 (centres unmarked) [Compound No. 5]	0.4 µg/mL (≈ 0.919 µM)	0.31 µg/mL (≈ 0.712 µM)	0.03 µg/mL (≈ 0.0689 µM)	1.84 µg/mL (≈ 4.23 µM)	5.4 µg/mL (≈ 12.4 µM)
CC1(C)[C@H](C(=O)OC(C#N)c2ccc(F)c(Oc3ccccc3)n2)[C@@H]1C=C(Br)Br (stereo partly drawn) [Compound No. 6, Cyano(5-fluoro-6-phenoxy-2-pyridyl) methyl (1R, cis)-2,2-dimethyl-3-(2,2-dibromovinyl)cyclopropane carboxylate]	0.31 µg/mL (≈ 0.591 µM)	0.24 µg/mL (≈ 0.458 µM)	0.02 µg/mL (≈ 0.0382 µM)		
CC(C)C(C(=O)OC(C#N)c1cccc(Oc2ccc(F)cc2)n1)c1ccc(Cl)cc1 (centres unmarked) [Reference Compd. A]	1.4 µg/mL (≈ 3.19 µM)	3.1 µg/mL (≈ 7.06 µM)			100 µg/mL (≈ 228 µM)
CC(C)C(C(=O)OC(C#N)c1cccc(Oc2ccccc2)n1)c1ccc(Cl)cc1 (centres unmarked) [Reference Compd. B]	5 µg/mL (≈ 11.9 µM)	1.7 µg/mL (≈ 4.04 µM)			
CC(C)C(C(=O)OC(C#N)c1cccc(Oc2ccc(F)cc2)n1)c1ccc(OC(F)F)cc1 (centres unmarked) [Reference Compd. C]	76 µg/mL (≈ 162 µM)	5 µg/mL (≈ 10.6 µM)	21 µg/mL (≈ 44.6 µM)		> 100 µg/mL
CC(C)C(C(=O)OC(C#N)c1cccc(Oc2ccccc2)n1)c1ccc(OC(F)F)cc1 (centres unmarked) [Reference Compd. D]	6 µg/mL (≈ 13.3 µM)	9 µg/mL (≈ 19.9 µM)	0.9 µg/mL (≈ 1.99 µM)	26 µg/mL (≈ 57.5 µM)	
CC1(C)C(C(=O)OC(C#N)c2cccc(Oc3ccc(F)cc3)n2)C1c1ccc(Cl)cc1 (centres unmarked) [Reference Compd. E]	16 µg/mL (≈ 35.5 µM)	13 µg/mL (≈ 28.8 µM)			
CC1(C)C(C(=O)OC(C#N)c2cccc(Oc3ccccc3)n2)C1c1ccc(Cl)cc1 (centres unmarked) [Reference Compd. F]		15 µg/mL (≈ 34.6 µM)	2 µg/mL (≈ 4.62 µM)		
CC(C)(C)c1ccc(C2C(C(=O)OC(C#N)c3cccc(Oc4ccc(F)cc4)n3)C2(C)C)cc1 (centres unmarked) [Reference Compd. G]	32 µg/mL (≈ 67.7 µM)	12 µg/mL (≈ 25.4 µM)			2 µg/mL (≈ 4.23 µM)
CCCCc1ccc(C2C(C(=O)OC(C#N)c3cccc(Oc4ccccc4)n3)C2(C)C)cc1 (centres unmarked) [Reference Compd. H]	6.4 µg/mL (≈ 14.1 µM)			12 µg/mL (≈ 26.4 µM)	
CC1(C)C(C=C(Cl)Cl)C1C(=O)OCc1cccc(Oc2ccccc2)n1 (centres unmarked) [Reference Compd. I]	3.7 µg/mL (≈ 9.43 µM)	10 µg/mL (≈ 25.5 µM)		34 µg/mL (≈ 86.7 µM)	> 100 µg/mL
